Source: US12152083B2 (priority 2014, dated 2024)

Experiments:
Jurkat cells = assay: Cell cycle arrest assay; assay type: cell-based; settings: 50 nM, 24 h, propidium iodide
Experimental: Jurkat cells (ATCC), cultured in RMPI-1640 media supplemented with 10% FBS, were obtained in logarithmic growth. 1 million cells/ml were seeded into a 12-well tissue-culture treated plate in a 950 μL volume. Cells were treated with Compound 5 in 50 μL of growth media such that the final concentration of Compound 5 was 50 nM, control cells were given 50 μL of growth media alone. Cells were incubated for 24 h at 37° C., 5% CO2 in a humidified incubator. Following incubation, cells were thoroughly resuspended and transferred to 5 mL FACS tubes, and stored on ice. Two washes were performed by spinning cells down in a swinging-bucket centrifuge at 450×g for 4 min, resuspending in 1 mL ice-cold PBS. Cells were fixed through the addition of 3 mL ice-cold 100% ethanol in a dropwise fashion under vortex, and immediately stored at 4° C. for 1 h. During the 1 h incubation, the following staining solution was prepared in ice-cold PBS: 10 μg/ml propidium iodide, 10 U/ml RNAse 1f, and 0.05% Triton X-100. Following the 1 h fixation incubation, ethanol was removed by spinning cells as described above, and washing twice in 1 mL ice-cold PBS. Cells were resuspended in 500 μL of the above-mentioned staining solution, and incubated at room temperature for 1 h. […] Histograms were generated using FCS Express, plotting # of events against fluorescence in FL-3.

[1] = tested on: Human gastric carcinoma cell line NCI-N87; assay: Cellular cytotoxicity of compounds, Example 3.1 (CellTiter-Glo); assay type: cell-based; settings: five nights
Experimental: (§1) Compounds were tested on one or more of Human T-cell leukemia cell line Jurkat (ATCC: TIB-152); Human breast cancer cell lines HCC1954 (ATCC: CRL-2338) and JIMT-1 (DSMZ: ACC 589); Human Pancreatic cell line BxPC-3 (ATCC: CRL.1687), Human ovarian adenocarcinoma cell line SK-OV-3 (ATCC: HTB-77) and Human gastric carcinoma cell line NCI-N87 (ATCC: CRL. 5822); to assess their cytotoxicity.
(§2) Briefly, cells were obtained from commercial sources and cultured as described in the product sheet provided. Cells were removed from their culture vessels and the resulting cell suspension was counted using a ViCell (Beckman Coulter), then seeded at 25,000 cells/mL (2,500 cells/well) in Costar 3904 black walled, flat bottomed 96-well plates (cells were seeded in the inner 60 wells of 96-well TC plates, and outer edge wells filled with water). Adherent cell lines were incubated for one night at 37° C./5% CO2 atmosphere to allow the cells to attach to the microtiter plate surface, while suspension (Jurkat) cells were plated immediately before use. Cytotoxins were dissolved and serially diluted in dimethyl sulfoxide and then the solutions were added to complete growth medium at five-times the desired maximum final concentration. The cytotoxins were then titrated in growth medium, normally 1:3, over eight steps. A control with no test article present (growth medium alone) was included on each microtiter plate in sextuplicate. The prepared toxin titrations were added (25 μL/well) in triplicate to each cell line assayed. […] After the incubation, cell viability was measured using CellTiter-Glo® by adding 30 μL of prepared CellTiter-Glo® reagent to each assay well. The mixtures were incubated for at least twenty minutes in the dark prior to measuring emitted luminescence using a microplate luminometer (500 ms integration time). The collected relative luminescence units (RLU) were converted to % cytotoxicity using the growth medium alone control mentioned above (% Cytotoxicity=1−[well RLU/average medium alone control RLU]×[…]).

[2] = tested on: Human T-cell leukemia cell line Jurkat; assay: as above; assay type: cell-based; settings: three nights
Experimental: as §1, §2

[3] = tested on: Human Pancreatic cell line BxPC-3; assay: as above; assay type: cell-based; settings: five nights
Experimental: as §1, §2

[4] = tested on: Jurkat, HCC1954, NCI-N87, BxPC-3, SK-OV-3, and JIMT-1 Cell Lines; assay: Cellular cytotoxicity, Example 3.1, control cytotoxin on all cell lines; assay type: cell-based, Human; settings: Example 3.1 cell lines
Experimental: as §1
Briefly, cells were obtained from commercial sources and cultured as described in the product sheet provided. Cells were removed from their culture vessels and the resulting cell suspension was counted using a ViCell (Beckman Coulter), then seeded at 25,000 cells/mL (2,500 cells/well) in Costar 3904 black walled, flat bottomed 96-well plates (cells were seeded in the inner 60 wells of 96-well TC plates, and outer edge wells filled with water). […] After the incubation, cell viability was measured using CellTiter-Glo® by adding 30 μL of prepared CellTiter-Glo® reagent to each assay well. The mixtures were incubated for at least twenty minutes in the dark prior to measuring emitted luminescence using a microplate luminometer (500 ms integration time). The collected relative luminescence units (RLU) were converted to % cytotoxicity using the growth medium alone control mentioned above (% Cytotoxicity=1−[well RLU/average medium alone control RLU]×[…]).

Jurkat cell line = assay: Cytotoxicity of compounds, Example 3 (CellTiter-Glo, 3 days); assay type: cell-based, Human; settings: titrated 1:3 starting with 30 nM
Experimental: Compounds were tested on Jurkat and HCC1954 cell lines to assess their cytotoxicity. Compounds were titrated 1:3 starting at various concentrations (30 nM to 1000 nM). Control cytotoxin HTI-286 (see, e.g., U.S. Pat. No. 7,579,323) was also titrated 1:3 across starting with a 30 nM concentration. Plates were incubated for 3 days. Cell viability was quantified using 30 μL/well of 1× CellTiter-Glo reagent.
Each cell line was grown in its respective growth medium until seeding day. Cells were removed from their culture vessels and the resulting cell suspension was counted using the ViCell. Cells were then diluted in their growth medium to 25000/mL such that 100 μL/well=2500 cells/well. Each cell line was seeded in the inner 60 wells of 96-well black walled TC plates, outer wells filled with water. HCC1954 were seeded a day prior to assay set up. Cytotoxins were diluted as described below a 5× dose-response of each compound was prepared using RPMI+10% FBS in a deep-well 96-well plate. This “master” dilution plate was used for each cell line. 25 μL of the 5× dose responses was spiked into each cell line in triplicate. The plates were returned to the incubator and were incubated for 3 nights. After the 3 nights, cell viability was quantified using 30 μL/well of 1× CellTiter-glo reagent. After at least 10 minutes of incubation, the luminescence was measured using the SpectraMax (500 ms integration).

## CC[C@H](C)[C@@H]([C@@H](CC(=O)N1CCC[C@H]1[C@H](OC)[C@@H](C)C(=O)NS(=O)(=O)c1ccc(N)cc1)OC)N(C)C(=O)[C@@H](NC(=O)[C@H](C(C)C)N(C)C)C(C)C [Compound 5, (S)—N-((3R,4S,5S)-1-((S)-2-((1R,2R)-3-(4-Aminophenylsulfonamido)-1-methoxy-2-methyl-3-oxopropyl)pyrrolidin-1-yl)-3-methoxy-5-methyl-1-oxoheptan-4-yl)-2-((S)-2-(dimethylamino)-3-methylbutanamido)-N,3-dimethylbutanamide]
Jurkat cells
  DNA content histograms, cell cycle phase: pronounced shift towards G2/M phase of the cell cycle

## CC[C@H](C)[C@@H]([C@@H](CC(=O)N1CCC[C@H]1[C@H](OC)[C@@H](C)C(=O)NS(=O)(=O)c1ccc(NC(=O)C(F)(F)F)cc1)OC)N(C)C(=O)[C@@H](NC(=O)[C@@H](NC)C(C)(C)c1ccccc1)C(C)C [Compound 18]
[1]
  EC50: 0.9 nM
[2]
  EC50: 1.5 nM
[3]
  EC50: 2.3 nM

## CN[C@H](C(=O)N[C@H](C(=O)N(C)[C@H](/C=C(\C)C(=O)O)C(C)C)C(C)(C)C)C(C)(C)c1ccccc1 [HTI-286]
[4]
  killing of all cell lines by control cytotoxin: successfully killed all cell lines at an expected concentration
Jurkat cell line
  killing of Jurkats by control cytotoxin: successfully killed Jurkats at an expected concentration
